In PubChem BioAssay AID1963826 (Molecular Pharmacology Branch, DTP, NCI, 2024):

System: 926638-142-R-J1-PDC complex spheroid viability
Assay: Anticancer human tumor 926638-142-R-J1-PDC patient-derived endometrial carcinoma cell line growth inhibition [POLQ]
Conditions: for IC50: curve of first compound; for viability, T/C: stronger effect = lower value
Outline: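 Patient-derived tumour cells were co-cultured with HUVEC and mesenchymal stem cells as multicellular spheroids at 37 °C. They were treated with POLQ inhibitors (novobiocin, ART-558, RP6685) alone or combined with other agents. Top concentrations were at or near clinical Cmax (otherwise 10 microM; SN-38 at 1 microM), decreasing in half-log steps.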

[1] = second compound 0.0316 µM, first compound 0.0316 µM
[2] = second compound 0.0316 µM, first compound 0.1 µM
[3] = second compound 0.0316 µM, first compound 0.316 µM
[4] = second compound 0.0316 µM, first compound 1 µM
[5] = second compound 0.0316 µM, first compound 3.16 µM
[6] = second compound 0.0316 µM, first compound 10 µM
[7] = second compound 0.1 µM, first compound 0.0316 µM
[8] = second compound 0.1 µM, first compound 0.1 µM
[9] = second compound 0.1 µM, first compound 0.316 µM
[10] = second compound 0.1 µM, first compound 1 µM
[11] = second compound 0.1 µM, first compound 3.16 µM
[12] = second compound 0.1 µM, first compound 10 µM
[13] = second compound 0.316 µM, first compound 0.0316 µM
[14] = second compound 0.316 µM, first compound 0.1 µM
[15] = second compound 0.316 µM, first compound 0.316 µM
[16] = second compound 0.316 µM, first compound 1 µM
[17] = second compound 0.316 µM, first compound 3.16 µM
[18] = second compound 0.316 µM, first compound 10 µM
[19] = second compound 1 µM, first compound 0.0316 µM
[20] = second compound 1 µM, first compound 0.1 µM
[21] = second compound 1 µM, first compound 0.316 µM
[22] = second compound 1 µM, first compound 1 µM
[23] = second compound 1 µM, first compound 3.16 µM
[24] = second compound 1 µM, first compound 10 µM
[25] = second compound 3.16 µM, first compound 0.0316 µM
[26] = second compound 3.16 µM, first compound 0.1 µM
[27] = second compound 3.16 µM, first compound 0.316 µM
[28] = second compound 3.16 µM, first compound 1 µM
[29] = second compound 3.16 µM, first compound 3.16 µM
[30] = second compound 3.16 µM, first compound 10 µM
[31] = second compound 10 µM, first compound 0.0316 µM
[32] = second compound 10 µM, first compound 0.1 µM
[33] = second compound 10 µM, first compound 0.316 µM
[34] = second compound 10 µM, first compound 1 µM
[35] = second compound 10 µM, first compound 3.16 µM
[36] = second compound 10 µM, first compound 10 µM
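Further: spheroids exposed to drugs for one week before readout.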
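Wherever viability, T/C is given: percent viability relative to DMSO vehicle control wells set as 100%.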

## CCCS(=O)(=O)Nc1ccc(F)c(C(=O)c2c[nH]c3ncc(-c4ccc(Cl)cc4)cc23)c1F + Nc1ccc(C#CCN(C(=O)Cc2ncc(C(F)(F)F)cc2C(F)(F)F)c2ccc(F)cc2)nn1
Second compound 0.0316 µM
  IC50: 7880 nM
Second compound 0.1 µM
  IC50: > 10000 nM
Second compound 0.316 µM
  IC50: 8900 nM
Second compound 1 µM
  IC50: 8580 nM
Second compound 3.16 µM
  IC50: 8430 nM
Second compound 10 µM
  IC50: 6870 nM
[1]
  viability, T/C: 99.5%
[2]
  viability, T/C: 90.5%
[3]
  viability, T/C: 103%
[4]
  viability, T/C: 85.7%
[5]
  viability, T/C: 80%
[6]
  viability, T/C: 42.2%
[7]
  viability, T/C: 111%
[8]
  viability, T/C: 85.7%
[9]
  viability, T/C: 103%
[10]
  viability, T/C: 81.8%
[11]
  viability, T/C: 94.5%
[12]
  viability, T/C: 50.9%
[13]
  viability, T/C: 90.4%
[14]
  viability, T/C: 97.9%
[15]
  viability, T/C: 100%
[16]
  viability, T/C: 99.9%
[17]
  viability, T/C: 87.1%
[18]
  viability, T/C: 45.3%
[19]
  viability, T/C: 105%
[20]
  viability, T/C: 92.1%
[21]
  viability, T/C: 93.3%
[22]
  viability, T/C: 92.8%
[23]
  viability, T/C: 80.4%
[24]
  viability, T/C: 44.8%
[25]
  viability, T/C: 89.8%
[26]
  viability, T/C: 83.6%
[27]
  viability, T/C: 90.5%
[28]
  viability, T/C: 87.8%
[29]
  viability, T/C: 88.6%
[30]
  viability, T/C: 43.4%
[31]
  viability, T/C: 87.9%
[32]
  viability, T/C: 93.5%
[33]
  viability, T/C: 91.3%
[34]
  viability, T/C: 82.6%
[35]
  viability, T/C: 71.2%
[36]
  viability, T/C: 40.1%

## CC[C@@]1(O)C(=O)OCc2c1cc1n(c2=O)Cc2cc3c(CN(C)C)c(O)ccc3nc2-1 + Nc1ccc(C#CCN(C(=O)Cc2ncc(C(F)(F)F)cc2C(F)(F)F)c2ccc(F)cc2)nn1
Second compound 0.0316 µM
  IC50: > 100 nM
Second compound 0.1 µM
  IC50: > 100 nM
Second compound 0.316 µM
  IC50: > 100 nM
Second compound 1 µM
  IC50: 97.6 nM
Second compound 3.16 µM
  IC50: 95.5 nM
Second compound 10 µM
  IC50: 73.1 nM
Second compound 0.0316 µM, first compound 0.000316 µM
  viability, T/C: 105%
Second compound 0.0316 µM, first compound 0.001 µM
  viability, T/C: 96.1%
Second compound 0.0316 µM, first compound 0.00316 µM
  viability, T/C: 84%
Second compound 0.0316 µM, first compound 0.01 µM
  viability, T/C: 73.4%
[1]
  viability, T/C: 71.5%
[2]
  viability, T/C: 46.6%
Second compound 0.1 µM, first compound 0.000316 µM
  viability, T/C: 112%
Second compound 0.1 µM, first compound 0.001 µM
  viability, T/C: 90%
Second compound 0.1 µM, first compound 0.00316 µM
  viability, T/C: 81.6%
Second compound 0.1 µM, first compound 0.01 µM
  viability, T/C: 81.7%
[7]
  viability, T/C: 69.2%
[8]
  viability, T/C: 48.3%
Second compound 0.316 µM, first compound 0.000316 µM
  viability, T/C: 96.8%
Second compound 0.316 µM, first compound 0.001 µM
  viability, T/C: 109%
Second compound 0.316 µM, first compound 0.00316 µM
  viability, T/C: 86.2%
Second compound 0.316 µM, first compound 0.01 µM
  viability, T/C: 66.6%
[13]
  viability, T/C: 64.1%
[14]
  viability, T/C: 56.3%
Second compound 1 µM, first compound 0.000316 µM
  viability, T/C: 100%
Second compound 1 µM, first compound 0.001 µM
  viability, T/C: 101%
Second compound 1 µM, first compound 0.00316 µM
  viability, T/C: 89.6%
Second compound 1 µM, first compound 0.01 µM
  viability, T/C: 88.5%
[19]
  viability, T/C: 71.2%
[20]
  viability, T/C: 49.4%
Second compound 3.16 µM, first compound 0.000316 µM
  viability, T/C: 92.4%
Second compound 3.16 µM, first compound 0.001 µM
  viability, T/C: 92%
Second compound 3.16 µM, first compound 0.00316 µM
  viability, T/C: 89.7%
Second compound 3.16 µM, first compound 0.01 µM
  viability, T/C: 78.6%
[25]
  viability, T/C: 74.6%
[26]
  viability, T/C: 48.1%
Second compound 10 µM, first compound 0.000316 µM
  viability, T/C: 91.2%
Second compound 10 µM, first compound 0.001 µM
  viability, T/C: 88.5%
Second compound 10 µM, first compound 0.00316 µM
  viability, T/C: 80.2%
Second compound 10 µM, first compound 0.01 µM
  viability, T/C: 79.6%
[31]
  viability, T/C: 65%
[32]
  viability, T/C: 43.9%

## CCc1cc2c(N3CCc4c(cc(Cn5ccnc5)cc4-c4cn(C)nc4C(F)(F)F)C3=O)cc(C)nc2c(OC)n1 + Nc1ccc(C#CCN(C(=O)Cc2ncc(C(F)(F)F)cc2C(F)(F)F)c2ccc(F)cc2)nn1
Second compound 0.0316 µM
  IC50: 1130 nM
Second compound 0.1 µM
  IC50: 426 nM
Second compound 0.316 µM
  IC50: 829 nM
Second compound 1 µM
  IC50: 478 nM
Second compound 3.16 µM
  IC50: 728 nM
Second compound 10 µM
  IC50: 503 nM
[1]
  viability, T/C: 86.9%
[2]
  viability, T/C: 66.6%
[3]
  viability, T/C: 65.4%
[4]
  viability, T/C: 43.6%
[5]
  viability, T/C: 51.3%
[6]
  viability, T/C: 33.6%
[7]
  viability, T/C: 90.7%
[8]
  viability, T/C: 66.7%
[9]
  viability, T/C: 52.7%
[10]
  viability, T/C: 40.9%
[11]
  viability, T/C: 42.1%
[12]
  viability, T/C: 28.2%
[13]
  viability, T/C: 83%
[14]
  viability, T/C: 70.4%
[15]
  viability, T/C: 55%
[16]
  viability, T/C: 47.8%
[17]
  viability, T/C: 44.1%
[18]
  viability, T/C: 27.6%
[19]
  viability, T/C: 69.3%
[20]
  viability, T/C: 69.8%
[21]
  viability, T/C: 56.6%
[22]
  viability, T/C: 37.9%
[23]
  viability, T/C: 43.5%
[24]
  viability, T/C: 30.1%
[25]
  viability, T/C: 76.3%
[26]
  viability, T/C: 58.2%
[27]
  viability, T/C: 57%
[28]
  viability, T/C: 47.2%
[29]
  viability, T/C: 46.9%
[30]
  viability, T/C: 31.6%
[31]
  viability, T/C: 60.2%
[32]
  viability, T/C: 63.8%
[33]
  viability, T/C: 53.8%
[34]
  viability, T/C: 39.6%
[35]
  viability, T/C: 42%
[36]
  viability, T/C: 27.2%

## O=c1[nH]cc(F)c(=O)[nH]1 + Nc1ccc(C#CCN(C(=O)Cc2ncc(C(F)(F)F)cc2C(F)(F)F)c2ccc(F)cc2)nn1
Second compound 0.0316 µM
  IC50: > 10000 nM
Second compound 0.1 µM
  IC50: > 10000 nM
Second compound 0.316 µM
  IC50: > 10000 nM
Second compound 1 µM
  IC50: > 10000 nM
Second compound 3.16 µM
  IC50: > 10000 nM
Second compound 10 µM
  IC50: > 10000 nM
[1]
  viability, T/C: 101%
[2]
  viability, T/C: 107%
[3]
  viability, T/C: 92.8%
[4]
  viability, T/C: 82.9%
[5]
  viability, T/C: 86.5%
[6]
  viability, T/C: 80.7%
[7]
  viability, T/C: 100%
[8]
  viability, T/C: 116%
[9]
  viability, T/C: 107%
[10]
  viability, T/C: 83.4%
[11]
  viability, T/C: 90.8%
[12]
  viability, T/C: 78.8%
[13]
  viability, T/C: 85.5%
[14]
  viability, T/C: 98.1%
[15]
  viability, T/C: 102%
[16]
  viability, T/C: 97.8%
[17]
  viability, T/C: 85.5%
[18]
  viability, T/C: 83%
[19]
  viability, T/C: 103%
[20]
  viability, T/C: 85%
[21]
  viability, T/C: 99.4%
[22]
  viability, T/C: 75.9%
[23]
  viability, T/C: 77.7%
[24]
  viability, T/C: 76.8%
[25]
  viability, T/C: 97.7%
[26]
  viability, T/C: 93.5%
[27]
  viability, T/C: 88.1%
[28]
  viability, T/C: 92.5%
[29]
  viability, T/C: 82.1%
[30]
  viability, T/C: 70.2%
[31]
  viability, T/C: 102%
[32]
  viability, T/C: 81%
[33]
  viability, T/C: 93.2%
[34]
  viability, T/C: 85.7%
[35]
  viability, T/C: 78.2%
[36]
  viability, T/C: 74.3%
